Literature values, collected in patent US20050244357A1, “Oil-containing emulsifiable formulations containing active agents” (priority 2004, published 2005).

Test system: thrips
Details: cotton, applied alone

CNC(=O)CSP(=S)(OC)OC [Dimethoate]
control of thrips: good control
